The results in this text go back to a melting point compilation (Tetko et al.; mined from patent text by program, amines drawn as free bases though some values may be those of a salt).

The structures appear in SMILES notation.

The melting point is the temperature, or range, at which the solid turns liquid. In the case of `Cc1ccc(C(=O)C2=C(O)C(=O)N(c3ccc(N(C)C)nn3)C2c2ccc(C(C)C)cc2)cc1` (configuration not stated), the melting point was 281 °C. The result for `O=S(=O)(C=CC(=Nc1ccccc1)Oc1ccccc1)c1ccccc1` reads 110 to 116 °C; that for `CCc1c(C)nc2ccc(C)cn2c1=O`, 154 to 156 °C; that for `CCOC(=O)C1=C(N)NC(C)=CC1c1ccccc1C` (configuration not stated), 159 °C. The result for `CCCCOCC(O)COc1ccc(-c2nc(-c3ccc(C)cc3C)nc(-c3ccc(C)cc3C)n2)c(O)c1` (configuration not stated) reads 80 to 83 °C; that for `CC(C)C1(C)NC(c2nc3ccc(Cl)cc3cc2C(=O)O)=NC1=O` (configuration not stated), 234 to 237 °C. For `CC(C)c1cc(C(=O)Nc2ccc(C(=O)O)c(O)c2)oc1C(C)C` the value was 179 to 180 °C; for `O=C1CCC(N2Cc3c(OCc4ccc(Cn5cnc(C(F)(F)F)c5)cc4)cccc3C2=O)C(=O)N1` (configuration not stated), 148 to 150 °C. In turn, `Cc1cc(-c2nnn[nH]2)cc2c(=O)c3cccnc3oc12` registered a melting point of 290 to 291 °C. The result for `Cn1c(=O)n(Cc2cccnc2)c2ccccc21` reads 90 °C. For `N#Cc1cc(C(=O)NNC(=O)c2occ(-c3ccncc3)c2-c2ccccc2)ccc1O` the value was 179 to 181 °C; for `O=C(OCc1ccccc1)N1CC[C@@H](Oc2ccc([N+](=O)[O-])cc2)[C@H](O)C1` (relative stereo), 179 to 180 °C. Compound `Cc1cc(C)c(OP(=O)(C(=O)c2c(C)cc(C)cc2C)c2ccccc2)c(C)c1` (configuration not stated) yielded a melting point of 94 to 96 °C. For `CSc1ccc([N+](=O)[O-])cc1C(=O)OC(C)(C)C` the value was 112 to 113 °C. For `COC(=O)C1(C)CN(C(=O)Nc2c(C)noc2C)N=C1c1ccc(Cl)cc1` (configuration not stated) the value was 214 to 216 °C; for `CC(=O)NC1(CNS(=O)(=O)c2ccccc2)CCN(C(=O)OC(C)(C)C)CC1`, 226 to 227 °C. In turn, `CC(C)CC(=O)N[C@H]1CC[C@H](CCN2CCN(c3nccc4c3OCC4)CC2)CC1` returned a melting point of 187 °C. For the compound `CCn1cnc2c(Nc3cccc(Cl)c3)nc(Cl)nc21`, the melting point was in the range of 127 to 128 °C. The result for `CC(C)(C)c1cc(CN2CC(N(O)C(N)=O)C2)cc(C(C)(C)C)c1O` reads 90 to 95 °C. The result for `CC(C)c1ccc2c(c1)C(Cl)Cc1ccc(F)cc1S2` (configuration not stated) reads 82 to 83 °C. `O=C(O)CC1(c2ccccc2)CCCCC1=O` (configuration not stated) had a melting point of 130 to 132 °C. For `COc1cc2nc(N3CCN(C(=O)C=Cc4ccccc4)CC3)nc(N)c2cc1OC` the value was 245 to 248 °C. For `Oc1ccc2oc(-c3cccc(O)c3O)nc2c1` the value was 239 to 241 °C; for `COc1ccc(Cn2ncn(-c3ccc(N4CCN([C@H](C)[C@](O)(Cn5cncn5)c5ccc(F)cc5F)CC4)cc3)c2=O)cc1`, 178 to 179 °C; for `CN1CCC[C@H]1c1ccc(Cl)cc1P(c1cccc2ccccc12)c1cccc2ccccc12`, 224 to 226 °C. The result for `COc1ccc2c(c1)NC(=O)C(C(=O)N(C)C)C2` (configuration not stated) reads 209 to 210 °C.

Compound `COC1OCC[C@@H]1NC(=O)[C@H](CC(C)C)NC(=O)[C@H](CC(C)C)NC(=O)[C@H](CC(C)C)NC(=O)OCc1ccccc1` (some centres not stated) yielded a melting point of 210 to 212 °C. In turn, `Cc1ccc(N2Cc3ccccc3P2(=O)C(C)C)cc1` (configuration not stated) yielded a melting point of 135 to 137 °C. In turn, `NC(=O)N1C(=O)C(=C(OC(=O)c2ccncc2)c2cccs2)c2cc(F)c(Cl)cc21` returned a melting point of 220 to 221 °C.

As for `CC(C)(C)c1ccc2c(c1)C(=O)NC2`, the melting point lay within 142 to 144 °C. For `OCC1OC(n2c(Cl)nc3c(Br)c(Br)ccc32)C(O)C1O` (configuration not stated) the value was 167 to 169 °C; for `Nc1cc([N+](=O)[O-])cc2c1CCCC2`, 77 °C; for `COP(=O)(NC1C(=O)N2C(C(=O)OCc3ccc([N+](=O)[O-])cc3)=C(C=CN3CCCCC3)CSC12)OC` (configuration not stated), 220 to 221 °C. Consider `Cc1cc(=O)n2cccc(OCc3ccccc3Cl)c2n1`, for which the melting point fell in the range of 166 to 168 °C. `CCC(C)CNC1=NS(=O)(=O)c2sc(Cl)cc2N1` (configuration not stated) came in with a melting point of 232 to 234 °C. The result for `Cc1c(NC(=O)c2ccc(OC[C@@H]3CCCO3)cc2)ccc2cc(CNCC3CC3)cnc12` reads 156 to 158 °C; that for `CC(Cn1ccnc1)Cn1nnc2ccc(Cl)cc2c1=O` (configuration not stated), 100 to 102 °C; that for `Nc1cccc2c1C(=O)c1c(O)cccc1C2=O`, 305 to 308 °C. The result for `CCn1nc(-c2cnc3[nH]cc(C(=O)N[C@H](C)C(=O)N4CC(C#N)C4)c3n2)c2ccc(Cl)cc21` reads 248 to 255 °C; that for `O=C(Nc1ccccc1)NN1CCCOC1=O`, 204 to 207 °C; that for `Cn1nc(-c2cnc(N)nc2-c2cccs2)ccc1=O`, 270 °C.

Consider `CC1(c2cccc(NS(C)(=O)=O)c2)C2CN(C(=O)CCc3ccsc3)CC21` (configuration not stated), for which the melting point came to 180 °C. The result for `O=c1cc2c(nn1-c1ccc(Cl)cc1)-c1cc(Cl)ccc1S(=O)CC2` (configuration not stated) reads 239 to 241 °C; that for `Cc1c(C)c2c(c3c1NCC3)CC(C)(CI)O2` (configuration not stated), 97 to 98 °C. Compound `CN(Cc1cc(C(F)(F)F)cc(C(F)(F)F)c1)C(=O)c1c(-c2ccc(F)cc2)c2cccnc2c(=O)n1C` gave a melting point of 211 to 212 °C. The result for `CC(C)(C)OC(=O)N1CCc2ccc3ccn(CCOc4ccccc4F)c3c2CC1` reads 132 to 134 °C; that for `CC(O)C1=C(c2ccccc2)C(=O)N(C(C)(C)C(=O)Nc2cc(Cl)cc(Cl)c2)CO1` (configuration not stated), 85 to 88 °C; that for `O=C(NCCSCc1cccc(Cl)c1)c1ccccc1`, 75 to 76 °C.

As for `CC(=O)Oc1cc(OCC(=O)c2ccc3c(c2)C(C)(C)CCC3(C)C)ccc1C(=O)OCc1ccccc1`, the melting point was in the range of 137 to 138 °C. Compound `COC(=O)CC1CC(=O)Nc2ccccc21` (configuration not stated) showed a melting point of 115 to 116 °C. `Cc1cc(-c2nc3ccc(CCN4CCOCC4)cc3c(=O)[nH]2)cc(C)n1` returned a melting point of 248 to 249 °C.

As to `CCC(C#N)=C1CCN(c2ccc(N3C[C@H](CNC(=O)CBr)OC3=O)cc2F)CC1`, the melting point was in the range of 200 to 203 °C. On to `COC(=O)C=Cc1cc(C)n(CCNC(C)=O)c1C`, for which the melting point fell in the range of 144 to 145 °C. For `Cc1cccc(NC(=O)NCC(=O)N(CC(=O)OC2(C)CCCCC2)c2ccccc2)c1` the value was 192 °C; for `CCOC(=O)c1ccc(Cl)nc1OCC`, 33 to 35 °C.

As to `COC(C)n1cc(C2=C(c3cn(C(C)OC)c4ccccc34)C(=O)NC2=O)c2ccccc21` (configuration not stated), the melting point fell in the range of 222 to 224 °C. For `Nc1nc(-n2cc(C(=O)O)c(=O)c3c(F)c(F)c(F)c(F)c32)c(F)cc1F` the value was 236 to 242 °C. The compound `COc1c(N2CCC(CN)(CF)C2)c(F)cc2c(=O)c(C(=O)O)cn(C3CC3)c12` (configuration not stated) displayed a melting point of 188 to 190 °C.

As for `N#Cc1ccc2sc(CO)cc2c1`, the melting point was 78 to 79 °C. Regarding `C=CCc1cn2c(=O)c(C(=O)O)cnc2c2cc(OC)ccc12`, the melting point was 207 to 210 °C. For `Cc1cc2c(cc1N1CCOCC1)OC(=O)C2C` (configuration not stated) the value was 108 to 109 °C.

On to `CCOC(=O)C(=NNc1ccc(Cl)cc1)C(C)=O`, for which the melting point lay in the range of 84 to 85 °C.
